Assay results as given in US7375074B2, “Body weight gain inhibitor” (priority 2001, dated 2008).
No end group written: not given here. *: point of attachment. 125I = [125I]*

Tests used:
[1] = biological target: T1, TGR26 (Rattus norvegicus, UniProt Q56UD9); experiment: Receptor binding using [125I-Tyr10]-hGPR8L(1-23) and membrane fraction of TGR26 expressing CHO cells; details: membrane fraction of TGR26 expressing CHO cells, 3 μg/ml
T1 construct: treated with restriction enzymes ClaI and SpeI, and the insert encoding TGR26 was excised; expressed in transfected cells; host or cells: CHO dhfr- cells, plasmid pAK-rGPR7; membrane fraction
T1 sequence (Q56UD9 1-329): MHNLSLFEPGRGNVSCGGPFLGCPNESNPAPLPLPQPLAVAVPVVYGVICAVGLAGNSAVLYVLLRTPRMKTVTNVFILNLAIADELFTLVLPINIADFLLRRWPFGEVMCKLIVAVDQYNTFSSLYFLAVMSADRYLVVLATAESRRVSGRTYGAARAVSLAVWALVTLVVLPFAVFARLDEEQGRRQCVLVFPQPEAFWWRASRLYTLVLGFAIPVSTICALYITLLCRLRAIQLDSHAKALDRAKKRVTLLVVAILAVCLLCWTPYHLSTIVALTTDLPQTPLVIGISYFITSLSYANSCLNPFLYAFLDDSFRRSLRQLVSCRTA
Method: Using [^125I-Tyr^10]-hGPR8L(1-23) prepared by the method described in Reference Example 42 and a cell membrane fraction prepared from TGR26 expressing cells as described in Example 6, a receptor binding assay was carried out as follows.
Cell membrane fraction prepared from TGR26 expressing cells was diluted to various concentration with assay buffer (25 mM Tris-HCl, 5 mM EDTA, 0.05% CHAPS (3-[(3-Cholamidopropyl) Dimethyl-Ammonio]-1-Propanesulfonate), 0.1% BSA, 0.5 mM PMSF, 1 μg/ml Pepstatin, 20 μg/ml Leupeptin, 4 μg/ml E-64, pH7.4), and 200 μl each of the diluent was dispensed into polypropilene test tube (Falcon 2053). In order to determine an amount of maximum binding, 2 μl of DMSO and 2 μl of 7 nM [^125I-Tyr^10]-hGPR8L(1-23) were added to the membrane fraction solution. […] After filtration, a radioactivity remaining on the filter was counted using γ-counter, and an amount of specific binding was estimated by subtracting an amount of non-specific binding from an amount of maximum binding. […]
A receptor binding activity of human- and porcine-homologue derivatives of GPR8 ligand peptide obtained in the reference examples was measured using a membrane fraction of TGR26 expressing CHO cells and [^125I-Tyr^10]-hGPR8L(1-23) by the method described in Reference Example 73. […]

[2] = biological target: T2, human GPR8 (Homo sapiens, UniProt P48146); experiment: Receptor binding using [125I-Tyr10]-hGPR8L(1-23) and membrane fraction of GPR8 expressing CHO cells; details: membrane fraction of human GPR8 expressing cells
T2 construct: expressed in transfected cells; host or cells: CHO dhfr- cells, plasmid pAKKO-GPR8; membrane fraction
T2 sequence (P48146 whole entry): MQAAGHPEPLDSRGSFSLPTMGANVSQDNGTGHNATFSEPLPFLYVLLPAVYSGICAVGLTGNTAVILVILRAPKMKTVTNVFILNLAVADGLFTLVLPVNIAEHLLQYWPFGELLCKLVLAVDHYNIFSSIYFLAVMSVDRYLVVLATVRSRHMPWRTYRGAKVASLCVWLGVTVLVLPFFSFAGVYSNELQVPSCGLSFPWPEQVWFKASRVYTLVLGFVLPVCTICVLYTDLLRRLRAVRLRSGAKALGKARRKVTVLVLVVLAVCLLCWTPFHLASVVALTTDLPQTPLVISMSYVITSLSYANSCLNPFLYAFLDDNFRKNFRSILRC

| IC50 [1] [nM] | specific binding compared with [125I-Tyr2]-hGPR8L(1-23) [2] | Compound |
| --- | --- | --- |
| 0.12 |  | CSCC[C@H](NC(=O)[C@H](CC(C)C)NC(=O)[C@H](CC(C)C)NC(=O)CNC(=O)[C@H](C)NC(=O)[C@H](C)NC(=O)[C@H](CCCNC(=N)N)NC(=O)CNC(=O)[C@@H](NC(=O)[C@@H](NC(=O)[C@H](Cc1c[nH]cn1)NC(=O)[C@H](Cc1ccc(O)cc1)NC(=O)[C@H](CCCNC(=N)N)NC(=O)[C@@H]1CCCN1C(=O)[C@H](CO)NC(=O)[C@H](C)NC(=O)[C@@H](NC(=O)[C@H](Cc1c[nH]cn1)NC(=O)[C@H](CCCCN)NC(=O)[C@H](Cc1ccc(O)cc1)NC(=O)[C@@H](N)Cc1c[nH]c2ccccc12)[C@@H](C)O)[C@@H](C)O)C(C)C)C(=O)NCC(=O)N[C@@H](CC(C)C)C(=O)O [pGPR8L(1-23)] |
|  | twice as much | [^125I-Tyr^10]-hGPR8L(1-23): hGPR8L(1-23) iodinated with 125I at Tyr10 by the lactoperoxidase method; radioligand (WYKHVASPRY(125I)HTVGRAAGLLMGL) |
